Data published in ChEMBL document CHEMBL1201862, “PubChem BioAssay data set” (2004).
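Grown in 96-well plates, cells were treated for 48 hours with each compound at five concentrations. Insufficient inhibition: endpoint recorded as highest concentration tested. GI50 is the concentration that inhibits growth by half.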 Calls of active or inactive are those of the source. Rule as the data show it: active = GI50 up to about 1.1 µM and inactive = higher.

Key:
Assay in all cases: NCI-60 cell line screen, 48 h
[1] = test system: KM12
[2] = test system: HCT-116
[3] = test system: HOP-62
[4] = test system: TK-10
[5] = test system: 786-0
[6] = test system: OVCAR-5
[7] = test system: SF-295
[8] = test system: UO-31
[9] = test system: SK-MEL-2
[10] = test system: RXF 393
[11] = test system: OVCAR-3
[12] = test system: SK-OV-3
[13] = test system: COLO 205
[14] = test system: HL-60
[15] = test system: OVCAR-8
[16] = test system: HOP-92
[17] = test system: MCF7
[18] = test system: MDA-MB-231
[19] = test system: T47D
[20] = test system: NCI/ADR-RES

Measured: GI50

CN(N=O)C(=O)NC(CCCCNC(=O)OCc1ccccc1)C(=O)OCc1ccccc1 (centres undefined)
inactive: [1] 48.2 µM | [2] 56.8 µM | [3] 28.5 µM | [4] 33.4 µM | [5] 17.5 µM | [6] > 100 µM | [7] 32.4 µM | [8] 20.2 µM | [9] 30.1 µM | [10] 33.7 µM | [11] 25.3 µM | [12] > 100 µM | [13] 23.7 µM | [14] 25.2 µM | [15] 19.2 µM | [16] 18.5 µM

C=C1C(=O)OC2/C=C(\COC(C)=O)CCC(OC(C)=O)C3=CC(OC3=O)C12 (centres undefined)
inactive: [1] 12.7 µM | [2] 2.48 µM | [3] 19.8 µM | [17] 3.69 µM | [4] 5.28 µM | [18] 19.1 µM | [5] 6.56 µM | [6] 17.7 µM | [19] 16.9 µM | [7] 18 µM | [8] 17.3 µM | [9] 6.46 µM | [10] 1.59 µM | [11] 4.15 µM | [12] 14.6 µM | [13] 2.14 µM | [14] 2.23 µM | [15] 3.31 µM | [16] 3.49 µM

O=C(/C=C/c1ccc(OCC(=O)N2CCN(c3ccccc3)CC2)cc1)c1ccccc1
inactive: [1] 4.52 µM | [2] 11.7 µM | [3] 32.8 µM | [4] 45.7 µM | [5] 14.6 µM | [6] 48.8 µM | [7] 23.3 µM | [8] 15.2 µM | [9] > 26.5 µM | [10] 7.85 µM | [11] 13.2 µM | [12] 38.1 µM | [13] 26.1 µM | [14] 4.95 µM | [15] 10.9 µM | [16] 29 µM

O=C1O[C@@H](c2ccc3c(c2)OCO3)C2C(=O)O[C@@H](c3ccc4c(c3)OCO4)C12 (some centres undefined)
inactive: [1] > 100 µM | [2] > 100 µM | [3] > 100 µM | [4] > 100 µM | [5] > 100 µM | [7] > 100 µM | [8] > 100 µM | [9] > 100 µM | [10] > 100 µM | [11] > 100 µM | [12] > 100 µM | [13] > 100 µM | [14] > 100 µM | [15] > 100 µM | [16] > 100 µM

CC(=O)/C(=C/N1CC(=O)NC1=S)C(=O)Nc1ccccc1C
inactive: [1] > 100 µM | [2] > 100 µM | [3] > 100 µM | [4] > 100 µM | [18] > 100 µM | [5] > 100 µM | [6] > 100 µM | [19] > 100 µM | [7] > 100 µM | [8] > 100 µM | [20] > 100 µM | [9] > 100 µM | [10] > 100 µM | [11] > 100 µM | [12] > 100 µM | [13] > 100 µM | [14] > 100 µM | [15] > 100 µM | [16] > 100 µM

CCOc1ccc(/C=C2\NC(=S)N(/C=C3\C(=O)Oc4ccccc4C3=O)C2=O)cc1
inactive: [1] 20.7 µM | [2] 19.5 µM | [3] 26.1 µM | [17] 17.8 µM | [4] 20.2 µM | [18] 20.4 µM | [5] 19.2 µM | [6] 40.2 µM | [7] 20.4 µM | [8] 24.1 µM | [20] 23.1 µM | [9] 17.3 µM | [10] 3.84 µM | [11] 21.1 µM | [12] 17.9 µM | [13] 15.2 µM | [14] 13.7 µM | [15] 19.4 µM | [16] 22.8 µM

CCCCc1c2c(nc3c1CCCC3O)CCCC2 (centres undefined)
inactive: [1] > 100 µM | [2] > 100 µM | [3] > 100 µM | [17] > 100 µM | [4] > 100 µM | [18] > 100 µM | [5] > 100 µM | [6] > 100 µM | [7] > 100 µM | [8] > 100 µM | [20] > 100 µM | [9] > 100 µM | [10] > 100 µM | [11] 71.8 µM | [12] > 100 µM | [13] > 100 µM | [14] > 100 µM | [15] > 100 µM | [16] 79.4 µM

CC1=C(/C=C/C(C)=C/C2CC(N(C)C)=CC(=O)O2)C(C)(C)CCC1 (centres undefined)
inactive: [1] 15.6 µM | [2] 12.9 µM | [3] 16.9 µM | [4] 14.1 µM | [5] 15.4 µM | [6] 11.6 µM | [7] 13 µM | [8] 10.7 µM | [9] 13.2 µM | [10] 14.9 µM | [11] 11.5 µM | [12] 16.4 µM | [13] 14.1 µM | [14] 1.44 µM | [15] 15.5 µM | [16] 16.4 µM

COC(=O)c1c(C)cccc1C1CN=NC12Cc1cccc(C)c1C2=O (centres undefined)
inactive: [1] 31.7 µM | [2] 28 µM | [3] 53.6 µM | [17] 30.8 µM | [4] 35 µM | [5] 39.1 µM | [6] 85.7 µM | [19] 24 µM | [8] 14.4 µM | [20] 21.7 µM | [9] 32.7 µM | [10] 30.5 µM | [13] 42.7 µM | [14] 11.7 µM | [15] 33.9 µM | [16] 14.8 µM

Nc1nc(-c2ccc(Cl)c([N+](=O)[O-])c2)cs1
inactive: [1] 71 µM | [2] 58.7 µM | [3] > 100 µM | [4] > 100 µM | [5] 59.4 µM | [6] > 100 µM | [7] 45.9 µM | [8] 78.9 µM | [9] > 100 µM | [10] 29.3 µM | [11] > 100 µM | [12] > 100 µM | [13] > 100 µM | [14] > 100 µM | [15] > 100 µM | [16] 16.2 µM

CC(C)(C)OC(=O)N1NC(c2ccccc2)CC1c1ccccc1 (centres undefined)
inactive: [1] 20.7 µM | [2] 29.7 µM | [3] 50.8 µM | [17] 23.7 µM | [4] 37.3 µM | [5] 38.3 µM | [6] 28.4 µM | [19] 13.5 µM | [7] 33.6 µM | [8] 15.7 µM | [20] 20.2 µM | [10] 15.8 µM | [11] 34.8 µM | [12] 37.6 µM | [13] 20 µM | [15] 35.3 µM | [16] 37.7 µM

CCOC(=O)C(C)c1cc(C2(C)OCCO2)c(C)o1 (centres undefined)
inactive: [1] > 100 µM | [2] > 100 µM | [3] > 100 µM | [4] > 100 µM | [5] > 100 µM | [6] > 100 µM | [7] > 100 µM | [8] > 100 µM | [9] > 100 µM | [10] > 100 µM | [11] > 100 µM | [12] > 100 µM | [13] > 100 µM | [14] > 100 µM | [15] > 100 µM | [16] 8.63 µM

Cc1cc(OC(=O)NCn2cc(-c3ccccc3)nn2)ccc1Cl
inactive: [1] > 100 µM | [2] 85.7 µM | [3] 69.3 µM | [17] > 100 µM | [4] > 100 µM | [18] > 100 µM | [5] > 100 µM | [6] > 100 µM | [7] > 100 µM | [20] 83.4 µM | [9] 48.3 µM | [13] > 100 µM | [14] 44.3 µM | [15] 92.7 µM | [16] 67.1 µM

Cc1ccc(-c2n[nH]c(=O)[nH]2)cc1[N+](=O)[O-]
inactive: [1] > 100 µM | [2] > 100 µM | [3] > 100 µM | [17] > 100 µM | [4] > 100 µM | [5] > 100 µM | [6] > 100 µM | [19] > 100 µM | [7] > 100 µM | [8] 27.5 µM | [20] > 100 µM | [9] > 100 µM | [10] > 100 µM | [11] > 100 µM | [13] > 100 µM | [14] > 100 µM | [15] > 100 µM | [16] > 100 µM

CC[C@@H]1CC[C@@H]2[C@H](CC[C@]3(C)[C@@H](OS(=O)(=O)c4ccc(C)cc4)CC[C@@H]23)[C@H]1COS(=O)(=O)c1ccc(C)cc1
inactive: [2] > 100 µM | [17] > 100 µM | [4] > 100 µM | [5] > 100 µM | [7] > 100 µM | [8] 51.4 µM | [20] > 100 µM | [10] > 100 µM | [14] > 100 µM | [15] > 100 µM | [16] > 100 µM

CCOC(=O)C1=C(C)N(NC(=O)Nc2ccccc2)C(=O)C1=P(c1ccccc1)(c1ccccc1)c1ccccc1
inactive: [1] > 10 µM | [2] 39.1 µM | [3] > 100 µM | [4] 56.5 µM | [5] 63 µM | [6] > 100 µM | [7] 48.4 µM | [8] 74.6 µM | [9] 22.4 µM | [10] 28 µM | [11] 36.5 µM | [12] > 100 µM | [13] 25.3 µM | [14] 21.4 µM | [15] 40 µM | [16] 31 µM
